Laboratory results taken from US20140081012A1, “NANOPARTICLE, LIPOSOMES, POLYMERS, AGENTS AND PROTEINS MODIFIED WITH REVERSIBLE LINKERS” (THE UNIVERSITY OF NORTH CAROLINA AT CHAPEL HILL, priority 2011, published 2014).

Assays:
[1] = test system: anti-BSA antibody (sandwich ELISA); assay: BSA ELISA characterization; assay type: binding; details: several concentrations over the sampling range
Experimental: Several concentrations were compared over the sampling range of the assays (FIG. 30). […] ELISA relies upon protein-protein interactions, thus providing insight into the preservation of the protein's binding motifs.
The solution was then dialyzed against water for 2 h to remove GSH. […] Absorbance was measured with a SpectraMax M5 plate reader (Molecular Devices) at 450 nm.

[2] = Regeneration of tyramine after disulfide cleavage with DTT (GC-MS); assay type: physicochemical; details: 50 mM DTT in PBS
Experimental: Two tyramine molecules were reacted with DIC in isopropanol, which completely simulates the cross-linking conditions for protein-based particles (FIG. 26). The commercially available disulfide crosslinker DSP was used as a control in this study. The dimer products were denoted as tyramine-DIC and tyramine-DSP, respectively. Both compounds were treated with 50 mM of dithiothreitol (DTT) in phosphate buffer saline (PBS) to cleave the disulfide bond. […] In addition, ^1H-NMR and high-resolution mass spectrometry confirmed the structure of tyramine recovered after DTT treatment of tyram tyramine-DIC. (SI) Therefore, all the aforementioned results support the successful design of the novel DIC crosslinker.
Tyramine (0.24 g, 1.75 mmol) was added to a solution of DIC (0.12 g, 0.35 mmol) in isopropanol (15 mL). The reaction mixture was stirred for 24 h at 40° C. The mixture was concentrated and purified by column chromatography (EtOAc) to give tyramine-DIC ([…]) as light yellow solid. Tyramine (0.24 g, 1.75 mmol) was added to a solution of DSP (0.14 g, 0.35 mmol) in DMF (4 mL). The reaction mixture was stirred for 24 h at 40° C. […] The supernatants from the solutions were collected and analyzed by gas chromatography-mass spectrometry (Alilent Technologies 5975 series MSD, 7820A GC system) and untreated tyramine was used as standard.

Row | Compound | absorbance in BSA ELISA compared with native albumin [1] | regeneration of tyramine after cleavage of the disulfide bond [2]
1 | denatured free protein: heat denatured BSA | significantly less total absorbance | –
2 | O=C(CCSSCCC(=O)NCCc1ccc(O)cc1)NCCc1ccc(O)cc1 [tyramine-DSP] | – | No peak of tyramine was observed
3 | albumin dissolved from the cross-linked particles: BSA released from DIC-cross-linked PRINT BSA particles in PBS with 5 mM glutathione | very similar absorbance | –
